Assay results taken from the supplement of paper PMC10307832.

Experiments:
Experiment in all cases: relative viability (nuclei count vs DMSO), 5 days (fraction); higher = more cells survive
EHT 1864 + Trametinib = compound: C1COCCN1CC2=CC(=O)C(=CO2)OCCCCCSC3=C4C=CC(=CC4=NC=C3)C(F)(F)F [EHT 1864] + CC(=O)Nc1cccc(-n2c(=O)n(C3CC3)c(=O)c3c(Nc4ccc(I)cc4F)n(C)c(=O)c(C)c32)c1 [Trametinib] (partner 0.02 µM)
Summary of the method: (§1)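 Lung cancer cell lines in 1536-well plates got either a single drug or a fixed anchor-drug dose together with five library-drug doses (not always all listed) in √10 steps, by pin tool, on the day after seeding. Nuclei were counted after 5 days, and relative viability is the treated-to-vehicle ratio of nuclei counts. Values are medians of duplicate plates.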

EHT 1864 + Bortezomib = compound: C1COCCN1CC2=CC(=O)C(=CO2)OCCCCCSC3=C4C=CC(=CC4=NC=C3)C(F)(F)F [EHT 1864] + CC(C)C[C@H](NC(=O)[C@H](Cc1ccccc1)NC(=O)c1cnccn1)B(O)O [Bortezomib] (partner 0.002 µM)
Summary of the method: as §1

EHT 1864 + Pictilisib = compound: C1COCCN1CC2=CC(=O)C(=CO2)OCCCCCSC3=C4C=CC(=CC4=NC=C3)C(F)(F)F [EHT 1864] + CS(=O)(=O)N1CCN(Cc2cc3nc(-c4cccc5[nH]ncc45)nc(N4CCOCC4)c3s2)CC1 [Pictilisib] (partner 1 µM)
Summary of the method: as §1

EHT 1864 + Olaparib = compound: C1COCCN1CC2=CC(=O)C(=CO2)OCCCCCSC3=C4C=CC(=CC4=NC=C3)C(F)(F)F [EHT 1864] + O=C(c1cc(Cc2n[nH]c(=O)c3ccccc23)ccc1F)N1CCN(C(=O)C2CC2)CC1 [Olaparib] (partner 8 µM)
Summary of the method: as §1

Cell Line	relative viability (EHT 1864 + Trametinib; first compound 0.04 µM)	relative viability (EHT 1864 + Trametinib; first compound 0.1265 µM)	relative viability (EHT 1864 + Trametinib; first compound 0.4 µM)	relative viability (EHT 1864 + Trametinib; first compound 1.265 µM)	relative viability (EHT 1864 + Trametinib; first compound 4 µM)	relative viability (EHT 1864 + Bortezomib; first compound 0.04 µM)	relative viability (EHT 1864 + Bortezomib; first compound 0.1265 µM)	relative viability (EHT 1864 + Bortezomib; first compound 0.4 µM)	relative viability (EHT 1864 + Bortezomib; first compound 1.265 µM)	relative viability (EHT 1864 + Bortezomib; first compound 4 µM)	relative viability (EHT 1864 + Pictilisib; first compound 0.04 µM)	relative viability (EHT 1864 + Pictilisib; first compound 0.1265 µM)	relative viability (EHT 1864 + Pictilisib; first compound 0.4 µM)	relative viability (EHT 1864 + Pictilisib; first compound 1.265 µM)	relative viability (EHT 1864 + Pictilisib; first compound 4 µM)	relative viability (EHT 1864 + Olaparib; first compound 0.04 µM)	relative viability (EHT 1864 + Olaparib; first compound 0.1265 µM)	relative viability (EHT 1864 + Olaparib; first compound 0.4 µM)	relative viability (EHT 1864 + Olaparib; first compound 1.265 µM)	relative viability (EHT 1864 + Olaparib; first compound 4 µM)
LCLC-103H	0.701	0.612	0.655	0.588	0.55	1.18	1.01	1.14	1.06	1.02	0.656	0.482	0.667	0.661	0.547	0.742	0.694	0.739	0.718	0.734
LOU-NH91	0.757	0.747	0.802	0.761	0.74	0.566	0.514	0.492	0.498	0.498	0.537	0.507	0.559	0.527	0.514	0.917	0.858	0.911	0.949	0.885
LU99A	0.531	0.428	0.487	0.452	0.565	1.06	0.672	1.06	1.25	1.13	0.389	0.276	0.326	0.289	0.336	0.26	0.262	0.25	0.284	0.274
LXF-289	0.676	0.609	0.615	0.616	0.657	1.02	0.92	0.929	0.973	0.872	0.788	0.766	0.755	0.794	0.727	1.12	0.963	1.02	0.953	0.97
NCI-H23	0.347	0.413	0.31	0.396	0.419	0.879		0.84	0.995	0.924	0.476		0.432	0.593	0.55	0.295	0.271	0.284	0.296	0.32
NCI-H322M	0.525	0.525	0.544	0.595	0.595	1.22	1.2	1.23	1.27	1.25	0.519	0.514	0.533	0.529	0.572	0.704	0.822	0.811	0.782	0.879
NCI-H441	0.365		0.544	0.573	0.51	0.381	0.372	0.505	0.447	0.285	0.388	0.359	0.515	0.6	0.508	0.562		0.503	0.477	0.617
NCI-H460		0.108	0.222	0.133	0.134	1.01	1.1	0.993	0.994	0.905	0.379	0.401	0.365	0.251	0.345	0.461	0.387	0.389	0.363	0.351
NCI-H520	0.692	0.628	0.732	0.659	0.67	0.685	0.339	0.629	0.773	0.323	0.346	0.27	0.308	0.324	0.336	0.271	0.318	0.354	0.419	0.351
NCI-H596	0.796	0.658	0.812	0.738	0.857	0.836	0.637	0.976	1.01	1.05	0.374	0.445	0.388	0.334	0.373	0.773	0.719	0.8	0.781	0.777
NCI-H647	0.437	0.353	0.604	0.429	0.464	0.808	0.753	0.954	0.934	1.04	0.56		0.468	0.325	0.433	0.493	0.503	0.539	0.312	0.613
NCI-H650	0.995	0.92	0.898	1.23	1.11	0.911		0.862	0.827	0.914	0.915		0.941	0.895	0.847	0.425	0.386	0.383	0.39	0.413
NCI-H661	0.527	0.53	0.616	0.565	0.498	0.866	0.705	0.769	0.655	0.716	0.403	0.435	0.481	0.437	0.415	0.799	0.685	0.684	0.606	0.567
NCI-H727	0.389	0.386	0.382	0.374	0.421	0.92	0.973	0.848		1.12	0.482	0.353	0.419		0.458	1.07	0.75	0.459	0.529	0.524
NCI-H838	0.5	0.466	0.553	0.514	0.536	0.873	0.47	0.778	0.906	0.614	0.501	0.353	0.548	0.435	0.428	0.743	0.726	0.788	0.79	0.807
NCI-H1355	0.461	0.39	0.393	0.452	0.412	1.32	0.908	1.12	1.32	1.24	0.423	0.385	0.412	0.445	0.475	0.718	0.657	0.772	0.727	0.706
NCI-H1437	0.531	0.411	0.56	0.485	0.45	0.563	0.476	0.475	0.486	0.473	0.438	0.47	0.418	0.492	0.397	0.621	0.587	0.622	0.523	0.523

Cell Line	relative viability (EHT 1864 + Trametinib; first compound 0.04 µM)	relative viability (EHT 1864 + Trametinib; first compound 0.1265 µM)	relative viability (EHT 1864 + Trametinib; first compound 0.4 µM)	relative viability (EHT 1864 + Trametinib; first compound 1.265 µM)	relative viability (EHT 1864 + Trametinib; first compound 4 µM)	relative viability (EHT 1864 + Bortezomib; first compound 0.04 µM)	relative viability (EHT 1864 + Bortezomib; first compound 0.1265 µM)	relative viability (EHT 1864 + Bortezomib; first compound 0.4 µM)	relative viability (EHT 1864 + Bortezomib; first compound 1.265 µM)	relative viability (EHT 1864 + Bortezomib; first compound 4 µM)	relative viability (EHT 1864 + Pictilisib; first compound 0.04 µM)	relative viability (EHT 1864 + Pictilisib; first compound 0.1265 µM)	relative viability (EHT 1864 + Pictilisib; first compound 0.4 µM)	relative viability (EHT 1864 + Pictilisib; first compound 1.265 µM)	relative viability (EHT 1864 + Pictilisib; first compound 4 µM)	relative viability (EHT 1864 + Olaparib; first compound 0.04 µM)	relative viability (EHT 1864 + Olaparib; first compound 0.1265 µM)	relative viability (EHT 1864 + Olaparib; first compound 0.4 µM)	relative viability (EHT 1864 + Olaparib; first compound 1.265 µM)	relative viability (EHT 1864 + Olaparib; first compound 4 µM)
NCI-H1650	0.521	0.568	0.515	0.515	0.568	0.202	0.205	0.228	0.215	0.202	0.597	0.351	0.579	0.548	0.442	0.722	0.63	0.776	0.845	0.682
NCI-H1651	0.832	0.827	0.822	0.817	0.808	0.988	0.89	0.974	0.868	0.929	0.537	0.562	0.555	0.563	0.492	0.165	0.184	0.177	0.174	0.191
NCI-H1666	0.961	0.886	0.8	0.884	0.862	0.763	0.728	0.772	0.78	0.98	0.533	0.442	0.501	0.545	0.575	0.732	0.756	0.73	0.839	0.775
NCI-H1734	0.781	0.709	0.643	0.592	0.61	1.09	0.788	0.914	0.902	0.901	0.485	0.455	0.455	0.452	0.418	0.71	0.64	0.619	0.679	0.635
NCI-H1755	0.732	0.782	0.768	0.701	0.726	1.02	0.824	0.895	0.899	0.941	0.495	0.376	0.403	0.436	0.428	0.912	0.817	0.822	0.817	0.829
NCI-H1792	0.432		0.438	0.345	0.456	0.859	0.877	0.926	0.866	0.919	0.259	0.302	0.27	0.288	0.348	0.466		0.339	0.359	0.416
NCI-H1915	0.295		0.283	0.28	0.286	1		1.01	0.934	0.964	1.02		0.963	0.998	0.905	0.287		0.251	0.257	0.257
NCI-H1975	0.375	0.329	0.296	0.225	0.327	0.343	0.395	0.376	0.32	0.369	0.304	0.305	0.278	0.269	0.301	0.812	0.828	0.781	0.791	0.719
NCI-H1993	0.579		0.5	0.485	0.543	0.973	0.733	1.06	1.01	1.06	0.88	1.04	0.788	0.866	0.894	1.17		0.971	0.966	1.05
NCI-H2009	0.252	0.267	0.301	0.336	0.277	0.881	0.794	1.04	0.918	0.936	0.798	0.664	0.852	0.718	0.761	0.618	0.548	0.702	0.66	0.49
NCI-H2023	0.514	0.459	0.492	0.569	0.573	0.911	0.634	0.867	1.04	0.953	0.244	0.208	0.223	0.212	0.271	0.403	0.525	0.411	0.48	0.461
NCI-H2085	0.417	0.533	0.514	0.604	0.543	0.989	0.785	0.962	0.971	0.782	0.555	0.524	0.47	0.448	0.428	0.783	0.762	0.754	0.732	0.713
NCI-H2087	0.188		0.211	0.167	0.215	0.629	0.569	0.753	0.739	0.781	0.942	0.698	0.952	0.72	0.97	0.545		0.468	0.545	0.534
NCI-H2126	0.614	0.568	0.545	0.503	0.548	1.16	1.1	1.11	1.09	1	0.53	0.44	0.516	0.521	0.514	0.916	0.926	0.887	0.882	0.915
NCI-H2228	0.553	0.566	0.389		0.533	0.935	1.13	0.984	0.904	1.11	0.414	0.357	0.267	0.417	0.443	0.614	0.661	0.66		0.61
NCI-H2347	0.222	0.281	0.251	0.276	0.463	1.24		1.13	0.894	0.995	0.596		0.582	0.639	0.583	0.624	0.452	0.53	0.541	0.402
